Measurements as given in ChEMBL document CHEMBL4342527, “Discovery of Novel Fungal Lanosterol 14α-Demethylase (CYP51)/Histone Deacetylase Dual Inhibitors to Treat Azole-Resistant Candidiasis” (J Med Chem, 2020).
Values after ≈ are worked out from the molar mass of the structure shown. Active and inactive are the calls of the source. No cut-off for these calls is given here.

Key:
[1] = molecular target: T1, Lanosterol 14-alpha demethylase (Candida albicans (strain SC5314 / ATCC MYA-2876) (Yeast), UniProt P10613); assay: Inhibition of CYP51 in azole-resistant Candida albicans 0304103 assessed as reduction in ERG11 gene expression at 32 ug/ml after 16 hrs by SYBR Green-1 dye based RT-PCR analysis; parameters: species or system 304103
T1 sequence (P10613 whole entry): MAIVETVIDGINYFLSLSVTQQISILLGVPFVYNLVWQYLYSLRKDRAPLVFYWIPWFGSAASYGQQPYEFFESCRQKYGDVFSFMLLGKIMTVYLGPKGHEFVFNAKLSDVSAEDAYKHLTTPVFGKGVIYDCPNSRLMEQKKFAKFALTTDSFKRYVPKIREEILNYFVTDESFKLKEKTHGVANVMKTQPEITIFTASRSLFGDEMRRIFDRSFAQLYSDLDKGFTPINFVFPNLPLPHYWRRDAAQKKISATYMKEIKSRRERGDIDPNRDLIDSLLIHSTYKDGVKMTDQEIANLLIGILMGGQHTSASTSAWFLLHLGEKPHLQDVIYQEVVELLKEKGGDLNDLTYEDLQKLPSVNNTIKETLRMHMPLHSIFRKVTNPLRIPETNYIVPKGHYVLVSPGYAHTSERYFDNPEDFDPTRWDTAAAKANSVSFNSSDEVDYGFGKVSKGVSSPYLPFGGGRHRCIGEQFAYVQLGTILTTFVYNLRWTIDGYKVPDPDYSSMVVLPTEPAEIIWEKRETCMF

[2] = tested on: Cryptococcus neoformans; assay: Antifungal activity against azole-sensitive Cryptococcus neoformans H99 after 72 hrs by spectrophotometry-based serial microdilution method; type: functional, var grubii H99; conditions: Cryptococcus neoformans, var grubii H99 , 72 h; read-out: MIC80
[3] = tested on: Candida tropicalis; assay: Antifungal activity against azole-resistant Candida tropicalis 5008 after 48 hrs by spectrophotometry-based serial microdilution method; type: functional; conditions: Candida tropicalis, 5008, 48 h
[4] = molecular target: T1, Lanosterol 14-alpha demethylase; assay: Inhibition of CYP51 in azole-resistant Candida albicans 0304103 assessed as unknown sterol 2 level at 0.5 ug/ml after 24 hrs by GC-MS analysis (reference value: 6.77%); parameters: scale not given: the % may be the effect or the level left
[5] = tested on: Candida albicans; assay: Inhibition of HDAC in azole-resistant Candida albicans 0304103 assessed as reduction in MDR1 gene expression at 32 ug/ml after 16 hrs by SYBR Green-1 dye based RT-PCR analysis; conditions: 304103
[6] = molecular target: T1, Lanosterol 14-alpha demethylase; assay: Inhibition of CYP51 in azole-resistant Candida albicans 0304103 assessed as unknown sterol 4 level at 0.5 ug/ml after 24 hrs by GC-MS analysis (reference value: 1.29%); parameters: scale not given: the % may be the effect or the level left
[7] = tested on: Candida albicans; assay: Inhibition of HDAC in azole-resistant Candida albicans 0304103 assessed as reduction in CDR1 gene expression at 32 ug/ml after 16 hrs by SYBR Green-1 dye based RT-PCR analysis; conditions: 304103
[8] = tested on: Candida albicans; assay: Antifungal activity against azole-resistant Candida albicans 0304103 after 48 hrs by spectrophotometry-based serial microdilution method; type: functional; conditions: Candida albicans, 0304103, 48 h
[9] = tested on: Candida albicans; conditions: 0304103, 32 ug/ml
Description: Inhibition of HDAC in azole-resistant Candida albicans 0304103 assessed as decrease in rhodamine 6G efflux at 32 ug/ml after 16 hrs by fluorimetry

[10] = tested on: Candida albicans; assay: Inhibition of biofilm formation in azole resistant Candida albicans 0304103 at 64 ug/ml after 24 hrs by XTT assay relative to control; type: functional; conditions: Candida albicans, 0304103, 24 h
[11] = molecular target: Histone deacetylase; assay: Inhibition of HDAC in HUVEC using Boc-Lys(Ac)-AMC as substrate preincubated for 12 hrs followed by substrate addition and measured after 4 hrs by fluorimetry; type: ADME, cell-based, Homo sapiens
[12] = molecular target: T1, Lanosterol 14-alpha demethylase; assay: Inhibition of CYP51 in azole-resistant Candida albicans 0304103 assessed as unknown sterol 5 level at 0.5 ug/ml after 24 hrs by GC-MS analysis (reference value: 4.87%); parameters: scale not given: the % may be the effect or the level left
[13] = tested on: Candida albicans; assay: Antifungal activity against azole-resistant Candida albicans 4108 after 48 hrs by spectrophotometry-based serial microdilution method; type: functional; conditions: Candida albicans, 4108, 48 h
[14] = molecular target: T1, Lanosterol 14-alpha demethylase; assay: Inhibition of CYP51 in azole-resistant Candida albicans 0304103 assessed as unknown sterol 3 level at 0.5 ug/ml after 24 hrs by GC-MS analysis (reference value: 4.78%); parameters: scale not given: the % may be the effect or the level left
[15] = tested on: Candida albicans; assay: Inhibition of HDAC in azole-resistant Candida albicans 0304103 assessed as reduction in CDR2 gene expression at 32 ug/ml after 16 hrs by SYBR Green-1 dye based RT-PCR analysis; conditions: 304103
[16] = tested on: Candida albicans; assay: Antifungal activity against azole-resistant Candida albicans 7781 after 48 hrs by spectrophotometry-based serial microdilution method; type: functional; conditions: Candida albicans, 7781, 48 h
[17] = tested on: Candida albicans; assay: Antifungal activity against azole-sensitive Candida albicans SC5314 after 48 hrs by spectrophotometry-based serial microdilution method; type: functional; conditions: Candida albicans, SC5314, 48 h; read-out: MIC80
[18] = tested on: Candida albicans; assay: Antifungal activity against Candida albicans 0304103 assessed as effect on filamentation up to 32 ug/ml after 4 hrs by differential interference contrast microscopic analysis; type: functional, organism-based
[19] = molecular target: T1, Lanosterol 14-alpha demethylase; assay: Inhibition of CYP51 in azole-resistant Candida albicans 0304103 assessed as ergosterol content at 0.5 ug/ml after 24 hrs by GC-MS analysis (reference value: 75.21%); parameters: scale not given: the % may be the effect or the level left
[20] = molecular target: T1, Lanosterol 14-alpha demethylase; assay: Inhibition of CYP51 in azole-resistant Candida albicans 0304103 assessed as unknown sterol 1 level at 0.5 ug/ml after 24 hrs by GC-MS analysis (reference value: 2.91%); parameters: scale not given: the % may be the effect or the level left
[21] = molecular target: T1, Lanosterol 14-alpha demethylase; assay: Inhibition of CYP51 in azole-resistant Candida albicans 0304103 assessed as lanosterol level at 0.5 ug/ml after 24 hrs by GC-MS analysis (reference value: 4.15%); parameters: scale not given: the % may be the effect or the level left

With OC(Cn1cncn1)(Cn1cncn1)c1ccc(F)cc1F [FLUCONAZOLE] the “inhibition (INH)” value [1] was “Not Active”, the MIC80 [2] was 2 µg/mL (≈ 6.53 µM) and the MIC80 [3] was over 64 µg/mL. For the same molecule, the Activity [4] was 7.5%, the inhibition [5] was “inactive” and the Activity [6] was 1.17%. The inhibition [7] was “inactive”, the MIC80 [8] was over 64 µg/mL and the inhibition [9] was “inactive”. For the same molecule, the inhibition at 64 µg/mL [10] was 22.9%, the IC50 [11] was over 40 µM and the Activity [12] was 4.66%. The MIC80 [13] was over 64 µg/mL, the Activity [14] was 4.7% and the inhibition [15] was “inactive”. The MIC80 [16] was over 64 µg/mL, the MIC80 [17] was 0.5 µg/mL (≈ 1.63 µM) and the Activity [18] was “inactive”. It also gave an Activity [19] of 74.97%, an Activity [20] of 3.06% and an Activity [21] of 3.94%.
